Assay [1] is filed under the species Homo sapiens. The assay is described as follows: Inhibitory concentration for the half maximal inhibition of Cl-/NO3- exchange measured for AE1 transfected cells (before and after treatment with CAI). It counts as functional.
For assay [2], the species on record is Homo sapiens. The experiment in a line: Percentage inhibition for the inhibition of Cl-/NO3- exchange measured for AE1 transfected cells (before and after treatment with CAI). The class given is functional.
For assay [3], the species on record is Homo sapiens. The assay is described as follows: Relative transport activity for the inhibition of Cl-/NO3- exchange measured for AE1 transfected cells (before and after treatment with CAI). It counts as functional.
Another assay has as its target Carbonic anhydrase 9 (Homo sapiens, UniProt Q16790).
A further assay has as its target Carbonic anhydrase 2 (Homo sapiens, UniProt P00918).
A further assay addresses T1, Carbonic anhydrase 4 (Bos taurus, UniProt Q95323).
T1 sequence (Q95323 whole entry): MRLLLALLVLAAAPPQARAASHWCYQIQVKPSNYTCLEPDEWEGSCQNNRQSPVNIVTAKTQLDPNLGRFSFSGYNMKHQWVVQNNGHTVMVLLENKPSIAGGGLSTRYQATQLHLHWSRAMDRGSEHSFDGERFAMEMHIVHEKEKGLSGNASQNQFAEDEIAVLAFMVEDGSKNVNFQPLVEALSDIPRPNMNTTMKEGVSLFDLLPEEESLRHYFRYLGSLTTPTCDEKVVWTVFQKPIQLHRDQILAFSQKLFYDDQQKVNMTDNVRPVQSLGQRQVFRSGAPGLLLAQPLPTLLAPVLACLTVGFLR

In a further assay the target is Carbonic anhydrase 1 (Homo sapiens, UniProt P00915).

pIC50, pKi: −log10 of the molar value.

Chain of Carbonic anhydrase 1 (P00915 whole entry): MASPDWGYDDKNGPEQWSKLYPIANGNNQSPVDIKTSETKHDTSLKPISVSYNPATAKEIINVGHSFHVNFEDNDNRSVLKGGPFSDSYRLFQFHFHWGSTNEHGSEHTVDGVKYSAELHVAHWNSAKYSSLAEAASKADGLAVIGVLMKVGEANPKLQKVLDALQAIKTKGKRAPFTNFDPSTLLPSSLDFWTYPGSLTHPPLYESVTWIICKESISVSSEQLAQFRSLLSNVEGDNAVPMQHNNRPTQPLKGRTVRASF
Description for Carbonic anhydrase 1: Inhibition constant evaluated for the inhibition of human CA I (Carbonic anhydrase I)
Description for Carbonic anhydrase 2: Inhibition constant evaluated for the inhibition of human CA II (Carbonic anhydrase II)
Description for Carbonic anhydrase 4: Inhibition constant evaluated for the inhibition of bovine CA IV (Carbonic anhydrase IV)
Description for Carbonic anhydrase 9: Inhibition constant evaluated for the inhibition of human CA IX (Carbonic anhydrase IX)

For the compound `CCCCc1cc(-c2ccccc2)cc(CCCC)[n+]1-c1ccc(S(=O)(=O)Nc2nnc(S(N)(=O)=O)s2)cc1.[O-][Cl+3]([O-])([O-])[O-]`, in the assay filed under Homo sapiens [1], the negative logarithm of the IC50 (pIC50) (as a rule, the negative decadic logarithm of the IC50, by convention in mol/L) was 2.82. In addition, the Inhibition (in general, how much of the control response was suppressed) in the assay filed under Homo sapiens [2] is listed as 34%. The same compound returned an Activity in the assay listed under Homo sapiens [3] of 0.709.
For the compound `Cc1c2cc(c(C)[n+]1-c1ccc(S(=O)(=O)Nc3nnc(S(N)(=O)=O)s3)cc1)CCCCCCCCC2.[O-][Cl+3]([O-])([O-])[O-]`, the pKi (usually −log10 of the Ki, conventionally taken in molar units) is 7.92 on Carbonic anhydrase 9, 8.86 on Carbonic anhydrase 2, 8.34 at Carbonic anhydrase 4 and 8.52 on Carbonic anhydrase 1. In addition, in the assay listed under Homo sapiens [3], the Activity worked out at 1.
Regarding `CCCc1cc(-c2ccccc2)cc(CCC)[n+]1-c1ccc(S(=O)(=O)Nc2nnc(S(N)(=O)=O)s2)cc1.[O-][Cl+3]([O-])([O-])[O-]`, the pIC50 in the assay filed under Homo sapiens [1] was 3.90. The compound further came in with an Inhibition in the assay filed under Homo sapiens [2] of 32%. In addition, in the assay filed under Homo sapiens [3], the Activity was found to be 0.651.

The values above are taken from ChEMBL document CHEMBL1137091, “Carbonic anhydrase inhibitors. Design of selective, membrane-impermeant inhibitors targeting the human tumor-associated isozyme IX” (J Med Chem, 2004).
